Data published in patent US20200278355A1, “CONJUGATED PROTEINS AND USES THEREOF” (THE SCRIPPS RESEARCH INSTITUTE, priority 2017, published 2020).

Tests used:
SCP2 = target: T1, SCP2 (Homo sapiens, UniProt P22307); assay: isoTOP-ABPP of compound-treated H460 cells: SCP2; type: cell-based; settings: SCP2 C94; 40 μM
T1 construct: H460 cells or H460 cells expressing luciferase in a 10 cm plate were incubated with indicated compounds; endogenous in cells; host or cells: H460
Description: For analysis of NR0B1 ligands or control compound reactivity, H460 cells or H460 cells expressing luciferase in a 10 cm plate were incubated with indicated compounds in serum/dye-free RPMI for 3 hours at 37° C. Cells were washed once ice-cold PBS and lysed in 1% Triton X-100 dissolved in PBS with protease inhibitors (Sigma) by sonication. Samples were clarified by centrifugation for 10 min at 16,000×g. Lysate was adjusted to 1.5 mg ml^−1 in 500 μL.
Samples were labeled for 1 h at ambient temperature with 100 μM iodoacetamide alkyne (1, IA-alkyne, 5 μL of 10 mM stock in DMSO). Samples were conjugated by copper-catalyzed azide-alkyne cycloaddition (CuAAC) to isotopically labeled, TEV-cleavable tags (TEV-tags). Heavy CuAAC reaction mixtures was added to the DMSO-treated or shGFP control samples and light CuAAC reaction mixture was added to compound-treated or shNRF2 samples. The CuAAC reaction mixture consisted of TEV tags (light or heavy, 10 μL of 5 mM stocks in DMSO, final concentration=100 μM), 1 mM tris(2-carboxyethyl)phosphine hydrochloride (TCEP; fresh 50× stock in water, final concentration=1 mM), ligand (17× stock in DMSO:t-butanol 1:4, final concentration=100 μM) and 1 mM CuSO4 (50× stock in water, final concentration=1 mM). The samples were allowed to react for 1 h at which point the samples were centrifuged (16,000×g, 5 min, 4° C.). […]

KEAP1-WT NSCLC cells = assay: Anchorage-independent growth, KEAP1-WT NSCLC cells; type: cell-based, human; settings: 5 μM
From the text: Based on its in situ activity (FIG. 6D and FIG. 12A, 12G) and selectivity (FIGS. 6A, 6B), BPK-29 was chosen for additional biological studies. […] Exogenous expression of […] the growth inhibition caused by BPK-29.

T1 sequence (P22307 whole entry): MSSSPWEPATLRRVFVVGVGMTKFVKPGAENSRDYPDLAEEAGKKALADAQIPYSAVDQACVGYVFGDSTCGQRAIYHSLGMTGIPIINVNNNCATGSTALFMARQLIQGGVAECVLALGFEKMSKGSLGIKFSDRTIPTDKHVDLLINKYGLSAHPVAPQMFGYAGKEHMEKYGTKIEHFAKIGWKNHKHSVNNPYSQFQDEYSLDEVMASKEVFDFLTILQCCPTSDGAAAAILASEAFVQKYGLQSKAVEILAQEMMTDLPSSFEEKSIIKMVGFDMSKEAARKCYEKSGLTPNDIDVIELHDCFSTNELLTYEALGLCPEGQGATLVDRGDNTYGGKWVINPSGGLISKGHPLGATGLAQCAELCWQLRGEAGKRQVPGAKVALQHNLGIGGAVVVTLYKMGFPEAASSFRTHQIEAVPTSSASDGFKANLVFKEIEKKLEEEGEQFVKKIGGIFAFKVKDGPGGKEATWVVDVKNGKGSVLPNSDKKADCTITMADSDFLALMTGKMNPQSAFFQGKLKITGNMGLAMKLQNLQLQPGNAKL

With `O=C(c1ccc(N2CCOCC2)cc1)N1CCCC(N(Cc2ccccc2)C(=O)CCl)CC1` (centres unmarked) [BPK-29, N-benzyl-2-chloro-N-(1-(4-morpholinobenzoyl)azepan-4-yl)acetamide] the “BPK-29-competed isoTOP-ABPP analysis” value (SCP2) was “Yes (Competed defined as showing R value ≥ 3.0 at 40 μM of test compound)” and the anchorage-independent growth (KEAP1-WT NSCLC cells) was “minimally affected”.
